Test systems include NCI-H522; Malme-3M; A498; SK-OV-3; MCF7; OVCAR-3; SK-MEL-28; OVCAR-4; HCC 2998; LOX IMVI; SNB-19; KM12; TK-10; T47D; DU-145; 786-0; UACC-257; Hs-578T; CAKI-1; SNB-75.
Experiment in all cases: growth of human tumour cells (NCI), 48 h

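How tested: cells in 96-well plates exposed to compound for 48 hours at five concentrations. GI50 = concentration required for 50% inhibition of growth.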 Activity calls are given as the source filed them. No stated cut-off is given here; in the data, active = GI50 up to about 1.1 µM and inactive = higher. Where only a bound is given, the exact number is not on record here.

`Cc1ccc(C(=O)/C=C2\Nc3ccccc3NC2=O)cc1`: the GI50 in the assay on NCI-H522 was 2.49 µM (inactive); in the assay on Malme-3M, 2.48 µM (inactive); in the assay with A498 it was 20.5 µM (inactive); in the assay with SK-OV-3 it was 2.19 µM (inactive); in the assay with MCF7 it was 9.98 µM (inactive); in the assay on OVCAR-3, 2.99 µM (inactive). Besides, the GI50 is 5.3 µM (inactive) in the assay with SK-MEL-28; 1.79 µM (inactive) in the assay with OVCAR-4; 11.5 µM (inactive) in the assay with HCC 2998; 7.94 µM (inactive) with LOX IMVI; 10.6 µM (inactive) in the assay with SNB-19; 17.1 µM (inactive) in the assay on KM12. For the same molecule, the GI50 in the assay on TK-10 was 2.1 µM (inactive); in the assay with T47D, 2.65 µM (inactive); with DU-145, 4.69 µM (inactive); with 786-0, 2.49 µM (inactive); in the assay with UACC-257 it was 12.4 µM (inactive); with Hs-578T, 2.21 µM (inactive). The GI50 in the assay with CAKI-1 is 2.44 µM (inactive).

Take `CCCCCCCCCCCCCC(=O)OCC(CCS(=O)(=O)O[C@H]1CC[C@@]2(C)C(=CC[C@@H]3C2CC[C@]2(C)C(=O)CCC32)C1)OC(=O)CCCCCCCCCCCCC` (some centres undefined): the GI50 with SNB-75, in the assay on Malme-3M, with A498, in the assay on SK-OV-3, with MCF7 and in the assay with OVCAR-3 was > 100 µM (inactive) in each case. Also, the GI50 with SK-MEL-28, in the assay on OVCAR-4, in the assay with HCC 2998, in the assay on LOX IMVI, in the assay with SNB-19 and in the assay with KM12 was > 100 µM (inactive) in each case. Also, the GI50 with TK-10, in the assay on T47D, in the assay with DU-145, with 786-0, with UACC-257 and in the assay with Hs-578T was > 100 µM (inactive) throughout. Further, in the assay on CAKI-1, the GI50 was > 100 µM (inactive).

As for `O=C(C1OC1c1ccc(Br)cc1O)C12CC3CC(CC(C3)C1)C2` (centres undefined), the GI50 was 18.8 µM (inactive) in the assay with NCI-H522; 14.5 µM (inactive) with SNB-75; 20 µM (inactive) with Malme-3M; 97.3 µM (inactive) in the assay on A498; 22.3 µM (inactive) in the assay on MCF7; 31.5 µM (inactive) with OVCAR-3. In addition, the GI50 is 19.4 µM (inactive) in the assay with SK-MEL-28; 26.2 µM (inactive) in the assay on OVCAR-4; 21.4 µM (inactive) in the assay with HCC 2998; 14.6 µM (inactive) in the assay with LOX IMVI; 34.8 µM (inactive) in the assay with SNB-19; 19.5 µM (inactive) in the assay on KM12. For the same molecule, the GI50 in the assay on TK-10 is 33.9 µM (inactive); in the assay with T47D, 40.8 µM (inactive); in the assay with DU-145 it was 42 µM (inactive); in the assay on 786-0 it was 17.6 µM (inactive); with UACC-257, 29 µM (inactive); in the assay on Hs-578T, 15.7 µM (inactive).

With `Brc1ccc(C2CC3(c4ccccc4)ON=C(c4ccccc4)N3c3ccccc3S2)cc1` (centres undefined), the GI50 in the assay on NCI-H522, with SNB-75, in the assay on Malme-3M, in the assay with A498, in the assay with SK-OV-3 and in the assay on MCF7 was > 100 µM (inactive) throughout. For the same molecule, the GI50 with OVCAR-3, in the assay on SK-MEL-28, in the assay on OVCAR-4, in the assay with HCC 2998, with LOX IMVI and in the assay with SNB-19 was > 100 µM (inactive) each time. Moreover, the GI50 with KM12, in the assay on TK-10, in the assay on T47D, in the assay with DU-145, in the assay with 786-0 and in the assay on UACC-257 was > 100 µM (inactive) in each case. Moreover, the GI50 in the assay on Hs-578T was > 100 µM (inactive).

For the molecule `C=CCCCCOC1C=CC(O)C(CO)O1` (centres undefined), the GI50 in the assay with NCI-H522, in the assay on Malme-3M, with A498, in the assay on SK-OV-3, in the assay with MCF7 and in the assay on OVCAR-3 was > 100 µM (inactive) in each case. Moreover, the GI50 in the assay with SK-MEL-28, in the assay on OVCAR-4, with HCC 2998, in the assay with LOX IMVI, in the assay with SNB-19 and in the assay with KM12 was > 100 µM (inactive) throughout. In addition, the GI50 with TK-10 is > 100 µM (inactive); in the assay with T47D it was > 100 µM (inactive); with DU-145 it was > 100 µM (inactive); in the assay on 786-0, > 100 µM (inactive); with UACC-257, > 100 µM (inactive); in the assay with Hs-578T, 30.1 µM (inactive). Further, the GI50 in the assay with CAKI-1 is > 100 µM (inactive).

In the case of `Cc1ccnc2nc3[nH]c4ccccc4c3cc12`, the GI50 was > 100 µM (inactive) in the assay on NCI-H522; 22 µM (inactive) in the assay on SNB-75; > 100 µM (inactive) in the assay with A498; > 100 µM (inactive) in the assay with MCF7; > 100 µM (inactive) in the assay on OVCAR-3; > 100 µM (inactive) in the assay on OVCAR-4. Further, the GI50 in the assay with HCC 2998, in the assay on LOX IMVI, in the assay with KM12, in the assay with TK-10, in the assay on T47D and with DU-145 was > 100 µM (inactive) in each case. The GI50 in the assay on 786-0 is 24.4 µM (inactive); in the assay with UACC-257, 89.5 µM (inactive); in the assay on Hs-578T, > 100 µM (inactive); in the assay with CAKI-1 it was > 100 µM (inactive).

With `C#CCNCC(=O)O`, the GI50 in the assay with NCI-H522, in the assay on Malme-3M, in the assay on A498, in the assay on SK-OV-3, with MCF7 and in the assay on OVCAR-3 was > 100 µM (inactive) in each case. For the same molecule, the GI50 in the assay with SK-MEL-28, in the assay on OVCAR-4, in the assay with HCC 2998, with SNB-19, in the assay with KM12 and in the assay with TK-10 was > 100 µM (inactive) in each case. Further, the GI50 with T47D, with DU-145, in the assay on 786-0, with UACC-257, in the assay on Hs-578T and in the assay with CAKI-1 was > 100 µM (inactive) each time.

On to `Cc1nc2ccccc2c(=O)n1NC(=O)c1ccc(CS)cc1`, for which the GI50 with NCI-H522 was 12.3 µM (inactive); with SNB-75, 14.9 µM (inactive); with Malme-3M it was 27.9 µM (inactive); in the assay on A498 it was 11.2 µM (inactive); in the assay with SK-OV-3 it was 17.8 µM (inactive); in the assay on MCF7, 5.64 µM (inactive). The GI50 was 11.8 µM (inactive) with OVCAR-3; 12.7 µM (inactive) in the assay with SK-MEL-28; 15.1 µM (inactive) in the assay on OVCAR-4; 18.5 µM (inactive) with HCC 2998; 0.145 µM (active) in the assay on LOX IMVI; 38.2 µM (inactive) with SNB-19. Further, the GI50 is 15.3 µM (inactive) in the assay with KM12; > 10 µM (inactive) in the assay with TK-10; 16.7 µM (inactive) with T47D; 28.1 µM (inactive) with DU-145; 11.5 µM (inactive) with 786-0; 20.4 µM (inactive) with UACC-257. The GI50 in the assay with Hs-578T is 16.6 µM (inactive).

Take `Cc1cc(N2CCCC2)c([N+](=O)[O-])cc1[N+](=O)[O-]`: the GI50 in the assay on NCI-H522, with SNB-75, in the assay with Malme-3M, in the assay with A498, with SK-OV-3 and in the assay on MCF7 was > 100 µM (inactive) each time. Besides, the GI50 in the assay with OVCAR-3, with SK-MEL-28, in the assay on OVCAR-4, in the assay with HCC 2998, in the assay on LOX IMVI and in the assay on SNB-19 was > 100 µM (inactive) throughout. Further, the GI50 in the assay on KM12 was > 100 µM (inactive); in the assay with T47D, > 100 µM (inactive); in the assay with DU-145 it was > 100 µM (inactive); in the assay on 786-0 it was > 100 µM (inactive); in the assay with UACC-257, > 100 µM (inactive); in the assay with Hs-578T, 90.4 µM (inactive). For the same molecule, the GI50 in the assay with CAKI-1 is > 100 µM (inactive).

With `C/C(=N\Nc1nc2ccccc2o1)c1cccc[n+]1[O-]`, the GI50 in the assay on NCI-H522 is 3.86 µM (inactive); with Malme-3M, 2.27 µM (inactive); in the assay on A498, 45.1 µM (inactive); in the assay with SK-OV-3, 22.5 µM (inactive); in the assay on MCF7, 5.98 µM (inactive); in the assay with OVCAR-3, 2.69 µM (inactive). The GI50 in the assay with SK-MEL-28 was 24.8 µM (inactive); in the assay on OVCAR-4, 5.45 µM (inactive); with HCC 2998 it was 0.0769 µM (active); with LOX IMVI it was 13.4 µM (inactive); in the assay on SNB-19 it was 64.7 µM (inactive); in the assay on KM12, 23.2 µM (inactive). Also, the GI50 is 3.52 µM (inactive) with TK-10; 2.89 µM (inactive) in the assay with T47D; 27.8 µM (inactive) in the assay with DU-145; 21.7 µM (inactive) in the assay with 786-0; 13 µM (inactive) in the assay with UACC-257; > 100 µM (inactive) with Hs-578T. Further, in the assay on CAKI-1, the GI50 is 2.69 µM (inactive).

Consider `c1ccc([P+](c2ccccc2)(c2ccccc2)c2ccc(-c3ccc([P+](c4ccccc4)(c4ccccc4)c4ccccc4)cc3)cc2)cc1`, for which the GI50 is 18.3 µM (inactive) in the assay with NCI-H522; 25.3 µM (inactive) in the assay on Malme-3M; 3.97 µM (inactive) in the assay with A498; 43.2 µM (inactive) in the assay with SK-OV-3; 36.8 µM (inactive) in the assay on MCF7; 15.8 µM (inactive) in the assay with OVCAR-3. Moreover, the GI50 is 49.5 µM (inactive) in the assay on SK-MEL-28; 21.5 µM (inactive) in the assay with OVCAR-4; 47.4 µM (inactive) with HCC 2998; 23.3 µM (inactive) in the assay with LOX IMVI; 50.7 µM (inactive) with SNB-19; 75.5 µM (inactive) in the assay with KM12. The GI50 in the assay on TK-10 was 34.8 µM (inactive); in the assay on T47D it was 41.4 µM (inactive); in the assay with DU-145 it was 63.8 µM (inactive); in the assay with 786-0, 25.9 µM (inactive); in the assay with UACC-257, 19.8 µM (inactive); with Hs-578T, > 100 µM (inactive). The GI50 in the assay on CAKI-1 was > 100 µM (inactive).

(Values after ChEMBL document CHEMBL1201862, “PubChem BioAssay data set” (2004).)
